This passage reports IC50 and inhibition in vivo results from patent US10774051B2, “6-membered heterocyclic derivatives and pharmaceutical composition comprising the same” (Shionogi & Co., Ltd., priority 2015, dated 2020).

Read-outs that look alike come from different tables or passages of the source.

In assay [1] the target is human P2X7 receptor (Homo sapiens, UniProt Q99572, R270H/Y155H). The experiment in a line: Evaluation of human P2X7 receptor inhibitory activity (Yo-Pro uptake, BzATP stimulation, FLIPR TETRA). It counts as cell-based. Put shortly:
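Yo-Pro dye uptake triggered by BzATP was monitored by FLIPR in human P2X7-transfected 1321N1 cells (SNP variant) in HEPES-buffered HBSS, pH 7.4-7.5. Compound was dispensed 8 min post-stimulation, then signal read for 20 min; IC50 derived logistically from inhibition of the fluorescence range.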

Assay [2] concerns partial sciatic nerve ligation model in rats. In words: Analgesic effect in a Seltzer model, evaluation (1): mechanical allodynia, von Frey filaments. Format: in vivo. The conditions noted are these: rat, read-out: analgesic effect, % reversal of mechanical allodynia. An excerpt:
Preparation of Partial Sciatic Nerve Ligation Model in Rats
Rats are anaesthetized using isoflurane/O2 inhalation anaesthesia. After induction of anesthesia, the left thigh is shaved. An incision was made in the skin just below the hip bone. The muscle was bluntly dissected to expose the sciatic nerve. About one half (½) of the sciatic nerve thickness is tightly ligated with a nylon thread and the wound is closed. The right thigh was used as a sham-operated control. The right thigh underwent an identical procedure with the left hind limb, however, the sciatic nerve was not manipulated or ligated.
Two weeks after nerve ligation, the effect on mechanical allodynia was assessed using a series of von Frey filaments. For habituation, the rats were placed into a plastic cage on a wire mesh bottom. Von Frey filaments (0.4 to 26 g) were applied to the plantar surface of the rat hind paws from the wire mesh side, and the value of the filament pressure at which the paw was withdrawn was used as a pain threshold. The measurement of mechanical sensitivity of the right and left hind paws was performed to obtain predose mechanical sensitivity. The rats showing the threshold change from 0.6 to 2 g (in nerve ligated side) and 8 to 15 g (in sham operated side) were used in the experiments. On the day before the experiment, the rats were evaluated with a series of von Frey filaments to familiarize them with the test procedure. The adopted animal was administrated with the compounds of the present invention. The compounds of the present invention were homogenized with mortar and pestle and suspended or diluted in 0.5% Methyl Cellulose to prepare 0.03-100 mg/2 mL/kg suspension and orally administered to rat using a syringe attached with a sonde. Post-dose mechanical sensitivities of the right and left hind paws were measured at approximately 1 to 7 hours after drug administration. Percent reversal of mechanical allodynia for each rat was calculated using the following formula. The analgesic effects of the compounds were compared.

Where [3] appears, read: 1321N1 cells stably expressing human P2X7 receptor, BzATP stimulation, Yo-Pro uptake, read-out: IC50 (antagonistic activity for the human P2X7 receptor).
[4] abbreviates: 5 hours after oral administration of 3 mg/kg.
[5] abbreviates: 3 hours after oral administration of 3 mg/kg.
The mark [6] stands for this setting: 1321N1 cells stably expressing human P2X7 receptor, BzATP stimulation, Yo-Pro uptake, read-out: IC50 (antagonistic activity for the human P2X7 receptor), class symbol.
Where [7] appears, read: antagonistic activity for the human P2X7 receptor, read-out: IC50.

By IC50 is commonly meant the concentration that gives 50% inhibition. In the case of `COc1ccc(Nc2nc(=O)c(F)cn2Cc2cc(F)cc(F)c2)c(C)c1` [Compound I-0842], the IC50 in assay [1] (setting [3]) turned out to be 5 nM. Also, in assay [2] (setting [4]), the inhibition in vivo at 3 mg/kg is 69%. Turning to `COc1cc(C)c(Nc2nc(=O)cnn2Cc2cc(F)c(F)c(F)c2)cc1OC` [Compound I-1281], the IC50 in assay [1] (setting [3]) amounted to 4 nM. The inhibition in vivo at 3 mg/kg in assay [2] (setting [4]) was 48%.

As to `COc1ccc(Nc2nc(=O)c(F)cn2Cc2cc(F)c(F)c(F)c2)c(C)c1` [Compound I-1040], in assay [1] (setting [3]), the 50% inhibitory concentration (IC50) is 6 nM. The inhibition in vivo at 3 mg/kg in assay [2] (setting [5]) amounted to 49%. Consider `COc1cn(Cc2ccc(F)c(Cl)c2)c(Nc2cc3sc(C)nc3cc2C)nc1=O` [Compound I-0005], for which, in assay [1] (setting [3]), the half-maximal inhibitory concentration (IC50) stood at 5 nM. Besides, the inhibition in vivo at 3 mg/kg in assay [2] (setting [5]) amounted to 45%.

`COc1ccc(F)c(Nc2nc(=O)c(F)cn2Cc2cc(F)c(F)c(F)c2)c1` [Compound I-1296]: in assay [1] (setting [3]), the IC50 is 11 nM. For the same compound, the inhibition in vivo at 3 mg/kg in assay [2] (setting [5]) stood at 59%.

On to `Cc1cc2c(cc1Nc1nc(=O)c(F)cn1Cc1cc(F)c(F)c(F)c1)COC2` [Compound I-1041], for which the concentration for half-maximal inhibition (IC50) in assay [1] (setting [3]) amounted to 9 nM. Also, the inhibition in vivo at 3 mg/kg in assay [2] (setting [4]) came to 48%. As for `COc1cn(Cc2cc(F)c(F)c(F)c2)c(Nc2cc3c(cc2C)COC3)nc1=O` [Compound I-0910], the IC50 in assay [1] (setting [3]) turned out to be 14 nM. For the same compound, the inhibition in vivo at 3 mg/kg in assay [2] (setting [4]) was 45%. The matching figures for `COc1cc(Nc2nc(=O)c(F)cn2Cc2cc(F)cc(F)c2)c(C)cc1F` [Compound I-1050]: 10 nM and 46%. Consider `Cc1ccc(F)cc1Nc1nc(=O)c(F)cn1Cc1cc(F)c(F)c(F)c1` [Compound I-1295], for which the 50% inhibitory concentration (IC50) in assay [1] (setting [3]) is 13 nM. The inhibition in vivo at 3 mg/kg in assay [2] (setting [5]) turned out to be 51%.

As for `COc1ccc(C)c(Nc2nc(=O)c(F)cn2Cc2cc(F)c(F)c(F)c2)c1` [Compound I-1066], in assay [1] (setting [3]), the IC50 came out at 3 nM. For the same compound, the inhibition in vivo at 3 mg/kg in assay [2] (setting [4]) came to 63%. For `COc1cc(C)c(Nc2nc(=O)c(C)nn2Cc2cc(F)cc(F)c2)cc1OC` [Compound I-1261], the 50% inhibitory concentration (IC50) in assay [1] (setting [3]) was determined as 16 nM. Also, the inhibition in vivo at 3 mg/kg in assay [2] (setting [4]) amounted to 54%. For `COc1cn(Cc2cc(F)c(F)c(F)c2)c(Nc2ccc(OC(F)F)cc2C)nc1=O` [Compound I-0707], the half-maximal inhibitory concentration (IC50) in assay [1] (setting [3]) is 14 nM. Further, in assay [2] (7 hours after oral administration of 3 mg/kg), the inhibition in vivo at 3 mg/kg came to 53%. In the case of `CCOc1ccc(Nc2nc(=O)c(OC)cn2Cc2cc(F)c(F)c(F)c2)c(C)c1` [Compound I-0702], the concentration for half-maximal inhibition (IC50) in assay [1] (setting [3]) came to 11 nM. Moreover, the inhibition in vivo at 3 mg/kg in assay [2] (setting [4]) turned out to be 58%. The matching figures for `O=C1CCCc2c(Nc3nc(=O)c(F)cn3Cc3cc(F)c(F)c(F)c3)cccc21` [Compound I-1108]: 4 nM and 42%. Regarding `COc1cn(Cc2ccc(F)c(Cl)c2)c(Nc2cc(C)c(Cl)cc2C)nc1=O` [Compound I-0006], the IC50 in assay [1] (setting [3]) was determined as 6 nM. Moreover, in assay [2] (setting [5]), the inhibition in vivo at 3 mg/kg is 49%. Take `Cc1cc(Nc2nc(=O)c(F)cn2Cc2cc(F)c(F)c(F)c2)c(C)nc1OC(F)F` [Compound I-1232]: the half-inhibitory concentration (IC50) in assay [1] (setting [3]) stood at 6 nM. Further, in assay [2] (setting [4]), the inhibition in vivo at 3 mg/kg turned out to be 55%. With `COc1cc(C)c(Nc2nc(=O)c(OC)cn2Cc2cc(F)cc(F)c2)cc1C` [Compound I-0372], the IC50 in assay [1] (setting [3]) amounted to 5 nM. Also, in assay [2] (setting [5]), the inhibition in vivo at 3 mg/kg was determined as 64%. `COc1ccc(C)c(Nc2nc(=O)c(OC)cn2Cc2ccc(F)c(Cl)c2)c1` [Compound I-0354]: the 50% inhibitory concentration (IC50) in assay [1] (setting [3]) is 3 nM. The inhibition in vivo at 3 mg/kg in assay [2] (setting [5]) stood at 51%. Take `COc1cn(Cc2ccc(F)c(Cl)c2)c(Nc2ccc(OC(F)F)cc2C)nc1=O` [Compound I-0365]: the half-maximal inhibitory concentration (IC50) in assay [1] (setting [3]) was found to be 18 nM. Further, in assay [2] (setting [4]), the inhibition in vivo at 3 mg/kg amounted to 55%. Consider `COc1cn(Cc2cccc(Cl)c2)c(Nc2cccc(Cl)c2C)nc1=O` [Compound I-0126], for which the 50% inhibitory concentration (IC50) in assay [1] (setting [6]) is 10 to 100 nM.

As to `CCc1cc2c(cc1Nc1nc(=O)c(OC)cn1Cc1ccc(Cl)cc1)CCC2` [Compound I-0195], in assay [1] (setting [3]), the half-maximal inhibitory concentration (IC50) came to 26 nM.

For `COc1cn(Cc2ccc(F)c(Cl)c2)c(Nc2cc3c(cc2C)OCO3)nc1=O` [Compound I-0742], the IC50 in assay [1] (setting [3]) was 16 nM. Turning to `COc1ccc(Nc2nc(=O)c(F)cn2Cc2cc(F)cc(F)c2)c(C)c1F` [Compound I-1297], the IC50 in assay [1] (setting [3]) was found to be 16 nM. For the same compound, the inhibition in vivo at 3 mg/kg in assay [2] (setting [4]) is 49%. On to `COc1cn(Cc2cc(F)cc(F)c2)c(Nc2cc(-c3cccn(C)c3=O)ccc2C)nc1=O` [Compound I-0589], for which the 50% inhibitory concentration (IC50) in assay [1] (setting [7]) is below 10 nM. Consider `COc1cc(Nc2nc(=O)c(F)cn2Cc2ccc(F)c(Cl)c2)c(C)cc1Cl` [Compound I-0533], for which, in assay [1] (setting [6]), the concentration for half-maximal inhibition (IC50) is below 10 nM.

On to `COc1cn(Cc2ccc(F)c(Cl)c2)c(Nc2cc3c(cc2C)COC3)nc1=O` [Compound I-0906], for which the IC50 in assay [1] (setting [7]) fell in the range of 10 to 100 nM.

Turning to `COc1cc(C)c(Nc2nc(=O)c(F)cn2Cc2cc(F)cc(F)c2)cc1Cl` [Compound I-1174], in assay [1] (setting [7]), the IC50 was below 10 nM. Same read-out and setting: for `COc1cn(Cc2cc(F)cc(Cl)c2)c(Nc2cc(S(C)(=O)=O)cc(C)c2C)nc1=O` [Compound I-0757] the value was 10 to 100 nM. `COc1cn(Cc2ccccc2)c(Nc2cc(F)c(F)cc2C)nc1=O` [Compound I-0359]: the 50% inhibitory concentration (IC50) in assay [1] (setting [6]) is 500 to 1000 nM. Consider `Cc1nc2cc(Cl)c(Nc3nc(=O)c(F)cn3Cc3cc(F)cc(F)c3)cc2o1` [Compound I-1075], for which the IC50 in assay [1] (setting [7]) was below 10 nM.

Regarding `COc1cn(Cc2cc(F)cc(F)c2)c(Nc2cc(-c3cccnc3)ccc2C)nc1=O` [Compound I-0766], the concentration for half-maximal inhibition (IC50) in assay [1] (setting [7]) was below 10 nM.
